Test results: patent US10927221B2, “Dendrimeric metallacrowns” (THE REGENTS OF THE UNIVERSITY OF MICHIGAN, priority 2018, dated 2021)

Key:
Absolute quantum yields [1] = format: physicochemical
From the text: (§1) Quantitative parameters, i.e. absolute quantum yields under excitation at 320 nm to 340 nm and luminescence lifetimes, have been determined for the Ga8Yb2(Shi)8(MIP)4 metallacrown and Ga8Ln2 G:−0.5 polyamidoamine MC-cored dendrimers (Ln=Yb, Tb, Sm) (Table 1).
(§2) In Table 1, luminescence lifetimes (λex=355 nm) and quantum yields (λex=340 nm for samples in the solid state and λex=320 for solutions) of the Ga8Yb2(Shi)8(MIP)4 dimeric metallacrown, Ga8Ln2 G:−0.5 polyamidoamine MC-cored dendrimers (Ln=Yb, Tb, Sm) (i.e., Ga8Ln2(Shi)8(MIP)4(G:−0.5 PAMAM)4) and Ga8Yb2 G:0.5 polyamidoamine MC-cored dendrimers at room temperature (2σ values are given between parentheses) are presented. For bi-exponetial luminescence lifetimes results, values after the colon indicate the fraction contribution of the individual lifetimes to the experimental luminescence decay.
(§3) Quantitative parameters, i.e. absolute quantum yields under excitation at 350 nm (for samples in the solid state) or 325 nm (for samples in solution) and luminescence lifetimes (under excitation at 355 nm), have been determined for each of the Ga8Y2(shi)8(mip)4 G:0 polyamidoamine MC-cored dendrimer, the Ga8Y2(shi)8(mip)4 G:0 AA-capped polyamidoamine MC-cored dendrimer, and the Ga8Y2(shi)8(mip)4 G:0.5 polyamidoamine MC-cored dendrimer at room temperature. In Table 2, the 2σ values are given between parentheses. For bi-exponetial luminescence lifetimes results, values after the colon indicate the fraction contribution of the individual lifetimes to the experimental luminescence decay.

Luminescence lifetimes = format: physicochemical
From the text: as §1, §2, §3

HeLa cells = experiment: Epifluorescence imaging with HeLa cells; format: cell-based; conditions: 3 hours, λex 377 nm band pass 50 nm
Experimental: FIG. 21 depicts epifluorescence microscopy images (reproduced in black and white) obtained on HeLa cells, (Top) after incubation with a 30 μM solution of Ga8Tb2(shi)8(MIP)4 G:−0.5 polyamidoamine MC-cored dendrimer for 3 hours (λex: 377 nm, band pass 50 nm; λem: 536 nm, band pass 40 nm, 1 s of exposure) and (Bottom) untreated (control) cells. A: brightfield, B: visible emission, and C: merged image (Objective 63×);
FIG. 22 depicts epifluorescence microscopy images (reproduced in black and white) obtained on HeLa cells, (Top) after incubation with a 100 μM solution of the Ga8Yb2(shi)8(MIP)4 G:−0.5 polyamidoamine MC-cored dendrimer for 3 hours (λex: 377 nm, band pass 50 nm; λem: long pass 805 nm, 40 s of exposure), and (Bottom) untreated (control) cells. A: brightfield, B: visible emission, and C: merged image (Objective 63×);
To test if synthesized MC-cored dendrimers could be used under biological conditions and maintain the luminescence signal, HeLa cells were incubated with the Tb(III) and Yb(III) G:−0.5 polyamidoamine MC-cored dendrimers (Ga8Tb2 G:−0.5 polyamidoamine MC-cored dendrimers and Ga8Yb2 G:−0.5 polyamidoamine MC-cored dendrimers). The metallacrown complexes coated the surfaces of the cells. For a control, HeLa cells were not incubated and were imaged in a similar manner. […]

Absolute quantum yields [2] = format: physicochemical; conditions: aqueous solution
[3] = Solution state (UV-Vis) absorbance; format: physicochemical; conditions: approximately 2 μM to 3 μM methanol solutions; room temperature
Experimental: The solution state (UV-Vis) absorbance of the Sm-shi8 and the Sm-e8, Sm-m4, Smbt8 and Sm-te4 analogs was measured in approximately 2 μM to 3 μM methanol solutions at room temperature. The absorbance spectrum for each analog shown in FIG. 29 has a π-π* transition band with λmax of approximately 315 nm (31,750 cm^−1) or 335 nm (29,850 cm^−1). This π-π* transition was red-shifted by close to 25 nm from Sm-shi8 in the case of Sm-e8 and Sm-bt8.

[4] = 200 μM H2O/DMSO (4%), λex=320 nm, room temperature (Table 1)
[5] = Solid, λex=340 nm, room temperature (Table 1)
[6] = 200 μM H2O/DMSO (4%), λex=355 nm, room temperature (Table 1)
[7] = Solid, λex=355 nm, room temperature, 2σ in parentheses (Table 1)
[8] = 200 μM H2O/DMSO (4%), λex=355 nm, room temperature (Table 1), longer lifetime component
[9] = 200 μM H2O/DMSO (4%), λex=355 nm, room temperature (Table 1), shorter lifetime component
[10] = H2O/DMSO (96/4), 1 mg/mL, excitation at 325 nm, room temperature (Table 2)
[11] = Solid, excitation at 350 nm, room temperature (Table 2)
[12] = H2O/DMSO (96/4), 1 mg/mL, excitation at 355 nm, room temperature (Table 2)
[13] = Solid, excitation at 355 nm, room temperature (Table 2)

In the case of “Ga8Sm2(shi)8(MIP)4G:−0.5 PAMAM metallacrown (MC)-cored dendrimer [Ga8Sm2 Gen: −0.5]”, the Quantum yield (Absolute quantum yields [1]; [4]) is reported as 1.1(1) %, the Quantum yield (Absolute quantum yields [1]; [5]) is reported as 2.31(2) % and the Lifetime (Luminescence lifetimes; [6]) is reported as 96.2(9) μs. The Lifetime (Luminescence lifetimes; [7]) was 112(1) μs.
For “Ga8Tb2(shi)8(MIP)4 G:−0.5 polyamidoamine MC-cored dendrimer [Ga8Tb2 Gen: −0.5]”, the Quantum yield (Absolute quantum yields [1]; [4]) was 6.1(3) %, the Quantum yield (Absolute quantum yields [1]; [5]) was 11.9(3) % and the “fraction contribution of the individual lifetime to the experimental luminescence decay” value (from here on “fraction contribution”) (Luminescence lifetimes; [8]) was 89.7(8) %. For the same substance, the “fraction contribution” value (Luminescence lifetimes; [9]) was 10.3(8) % and the “luminescence signal on epifluorescence microscope, visible range” value (HeLa cells; 30 μM, 536 nm emission, 40 nm filter, 1 s exposure) was “good quality signals were observed in the visible range”.
In the case of Ga8Yb2(Shi)8(MIP)4, the Quantum yield (Absolute quantum yields [1]; [4]) is reported as 9.01(7) · 10^−2%, the Quantum yield (Absolute quantum yields [1]; [5]) is reported as 0.126(3) % and the “fraction contribution” value (Luminescence lifetimes; [8]) is reported as 97.5(3) %. For the same substance, the “fraction contribution” value (Luminescence lifetimes; [9]) was 2.5(3) %.
For “Ga8Yb2(shi)8(MIP)4 G:0 polyamidoamine MC-cored dendrimer [Ga8Yb2 G:0]”, the Quantum yield (Absolute quantum yields [1]; [10]) was 0.53(1) %, the Quantum yield (Absolute quantum yields [1]; [11]) was 2.40(2) % and the Lifetime (Luminescence lifetimes; [12]) was 9.93(8) μs. The Lifetime (Luminescence lifetimes; [13]) was 36.3(1) μs.
For “Ga8Yb2(shi)8(MIP)4 G:0.5 polyamidoamine MC-cored dendrimer [Ga8Yb2 Gen: 0.5]”, the Quantum yield (Absolute quantum yields [1]; [10]) was 0.63(1) %, the Quantum yield (Absolute quantum yields [1]; [11]) was 2.83(9) % and the Quantum yield (Absolute quantum yields [1]; [5]) was 1.82(1) %. For the same substance, the Lifetime (Luminescence lifetimes; [12]) was 11.1(1) μs, the Lifetime (Luminescence lifetimes; [13]) was 46.3(1) μs and the Lifetime (Luminescence lifetimes; [7]) was 28.2(3) μs.
With “Ga8Yb2(shi)8(MIP)4 G:−0.5 polyamidoamine MC-cored dendrimer [Ga8Yb2 Gen: −0.5]” the Quantum yield (Absolute quantum yields [1]; [4]) was 0.868(9) %, the Quantum yield (Absolute quantum yields [1]; 200 μM H2O/DMSO (4%), λex=320 nm, room temperature (Table 1), listed as Ga8Yb2 G:−0.5 polyamidoamine MC-cored dendrimer) was 0.868% and the Quantum yield (Absolute quantum yields [1]; [5]) was 3.24(9) %. For the same substance, the Lifetime (Luminescence lifetimes; [6]) was 13.(1) μs, the Lifetime (Luminescence lifetimes; [7]) was 35.3(6) μs and the “improvement of quantum yield compared to YnZn16 MCs assembled with pyrazinehydroxamic acid” value (Absolute quantum yields [2]) was over 77 times. The “luminescence signal on epifluorescence microscope, NIR range” value (HeLa cells; 100 μM, >805 nm emission, 40 s exposure) was “good quality signals were observed in the NIR range”.
For Sm2Ga8(eshi)8(ip)4 [Sm-e8], the “red-shift of π-π* transition band from Sm-shi8” value [3] was about 25 nm.
With Sm2Ga8(shi)8(miph)4 [Sm-m4] the “red-shift of π-π* transition band from Sm-shi8” value [3] was “no notable redshift”.
